Test results reported in PubChem BioAssay AID248 (DTP/NCI, 2004).
Toxic doses and inconclusive results are not listed. Rule as the data show it: active = T/C of 150% or more; inactive = T/C below 125%.

Tested on: L1210 leukemia ip in BDF1 mice, survival T/C
Experiment: NCI In Vivo Anticancer Drug Screen. Data for tumor model L1210 Leukemia (intraperitoneal) in B6D2F1 (BDF1) mice
Conditions: endpoint: mean survival time, higher = longer survival
Method in brief: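 Transplanted-tumor mice were given test agent; controls received vehicle only. Survival readings from the two groups were divided (treated over control).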

[1] = dose: 50.0 mg/kg/injection, schedule: Q01DX001 (ip), vehicle: carboxymethylcellulose (CMC)
[2] = dose: 100.0 mg/kg/injection, schedule: Q01DX001 (ip), vehicle: carboxymethylcellulose (CMC)
[3] = dose: 200.0 mg/kg/injection, schedule: Q01DX001 (ip), vehicle: carboxymethylcellulose (CMC)
[4] = dose: 100.0 mg/kg/injection, schedule: Q01DX001 (ip), vehicle: saline
[5] = dose: 200.0 mg/kg/injection, schedule: Q01DX001 (ip), vehicle: saline
[6] = dose: 400.0 mg/kg/injection, schedule: Q01DX001 (ip), vehicle: saline
[7] = dose: 50.0 mg/kg/injection, schedule: Q01DX009 (ip), vehicle: saline
[8] = dose: 100.0 mg/kg/injection, schedule: Q01DX009 (ip), vehicle: saline
[9] = dose: 200.0 mg/kg/injection, schedule: Q01DX009 (ip), vehicle: saline
[10] = dose: 100.0 mg/kg/injection, schedule: Q01DX001 (ip), vehicle: Klucel (hydroxypropylcellulose) (HPC)
[11] = dose: 200.0 mg/kg/injection, schedule: Q01DX001 (ip), vehicle: Klucel (hydroxypropylcellulose) (HPC)
[12] = dose: 400.0 mg/kg/injection, schedule: Q01DX001 (ip), vehicle: Klucel (hydroxypropylcellulose) (HPC)
[13] = dose: 100.0 mg/kg/injection, schedule: Q04DX002 (ip), vehicle: Klucel (hydroxypropylcellulose) (HPC)
[14] = dose: 200.0 mg/kg/injection, schedule: Q04DX002 (ip), vehicle: Klucel (hydroxypropylcellulose) (HPC)
[15] = dose: 100.0 mg/kg/injection, schedule: Q01DX009 (ip), vehicle: saline with Tween-80
[16] = dose: 200.0 mg/kg/injection, schedule: Q01DX009 (ip), vehicle: saline with Tween-80
[17] = dose: 400.0 mg/kg/injection, schedule: Q01DX009 (ip), vehicle: saline with Tween-80

Measured: T/C

CCOCC1c2ccccc2CCN1Cc1c[nH]c2ccccc12 (stereo not drawn)
inactive: [1] 97 % of control | [2] 89 % of control | [3] 90 % of control

CCCCCCCCC(S(=O)(=O)CC)S(=O)(=O)CC
inactive: [4] 97 % of control | [5] 94 % of control | [6] 92 % of control

COc1cccc(Nc2ccc(C(=O)O)cc2[N+](=O)[O-])c1
inactive: dose: 100.0 mg/kg/injection, schedule: Q04DX003 (ip), vehicle: water 98 % of control | dose: 200.0 mg/kg/injection, schedule: Q04DX003 (ip), vehicle: water 103 % of control | dose: 400.0 mg/kg/injection, schedule: Q04DX003 (ip), vehicle: water 98 % of control

Nc1ncnc2c1ncn2CCCCCl
inactive: dose: 12.0 mg/kg/injection, schedule: Q04DX003 (ip), vehicle: saline 93 % of control | dose: 12.5 mg/kg/injection, schedule: Q01DX009 (ip), vehicle: saline 119 % of control | dose: 25.0 mg/kg/injection, schedule: Q01DX009 (ip), vehicle: saline 97 % of control | dose: 25.0 mg/kg/injection, schedule: Q04DX003 (ip), vehicle: saline 107 % of control | [7] 106 % of control | dose: 50.0 mg/kg/injection, schedule: Q04DX003 (ip), vehicle: saline 93 % of control

O=C(COc1ccc(Cl)c(Cl)c1)N(Cc1ccccc1)Cc1ccc[n+](Cc2cccc(Cl)c2S(=O)(=O)F)c1
inactive: dose: 25.0 mg/kg/injection, schedule: Q04DX003 (ip), vehicle: saline with Tween-80 106 % of control | dose: 50.0 mg/kg/injection, schedule: Q04DX003 (ip), vehicle: saline with Tween-80 96 % of control

C1C2OC3CN1CC(O2)O3
inactive: [7] 97 % of control | [8] 97 % of control | [9] 94 % of control

O=c1c(N=Nc2ccc(Br)cc2)c(O)n(-c2ccccc2)c(=S)n1-c1ccccc1
inactive: [10] 105 % of control | [11] 102 % of control | [12] 102 % of control

Cc1ccc(S(=O)(=O)OC2CCC(=O)CC2)cc1
inactive: dose: 75.0 mg/kg/injection, schedule: Q01DX001 (ip), vehicle: acetone 92 % of control | dose: 150.0 mg/kg/injection, schedule: Q01DX001 (ip), vehicle: acetone 97 % of control | dose: 300.0 mg/kg/injection, schedule: Q01DX001 (ip), vehicle: acetone 100 % of control

CC(C)NNC(=O)c1ccccc1
inactive: dose: 25.0 mg/kg/injection, schedule: Q04DX002 (ip), vehicle: saline 109 % of control | dose: 50.0 mg/kg/injection, schedule: Q04DX002 (ip), vehicle: saline 120 % of control | dose: 100.0 mg/kg/injection, schedule: Q04DX002 (ip), vehicle: saline 109 % of control

Cc1cc(C)c2c(c1)CC2=O
inactive: dose: 50.0 mg/kg/injection, schedule: Q04DX002 (ip), vehicle: Klucel (hydroxypropylcellulose) (HPC) 96 % of control | [13] 112 % of control | [14] 86 % of control

CCOC(=O)CN(C)c1ccccc1
inactive: [1] 104 % of control | [2] 107 % of control | [3] 93 % of control | dose: 400.0 mg/kg/injection, schedule: Q01DX001 (ip), vehicle: carboxymethylcellulose (CMC) 107 % of control

Cc1cc(/C=N/NC(=O)CCCC(=O)N/N=C/c2cc(C)n(-c3ccccc3)c2C)c(C)n1-c1ccccc1
inactive: dose: 50.0 mg/kg/injection, schedule: Q01DX001 (ip), vehicle: saline 98 % of control | [4] 93 % of control | [5] 95 % of control | [6] 89 % of control

Cc1ccc(S(=O)(=O)N2CCc3ccccc3C(=O)C2Br)cc1 (stereo not drawn)
inactive: [8] 97 % of control | [9] 94 % of control | dose: 400.0 mg/kg/injection, schedule: Q01DX009 (ip), vehicle: saline 86 % of control

CCN(CCCCOC(=O)c1ccc(OC)c(OC)c1)C(C)Cc1ccc(OC)cc1 (stereo not drawn)
inactive: dose: 9.37 mg/kg/injection, schedule: Q01DX009 (ip), vehicle: saline 95 % of control | dose: 18.75 mg/kg/injection, schedule: Q01DX009 (ip), vehicle: saline 87 % of control | dose: 18.75 mg/kg/injection, schedule: Q04DX003 (ip), vehicle: saline 114 % of control | dose: 37.5 mg/kg/injection, schedule: Q01DX009 (ip), vehicle: saline 101 % of control | dose: 37.5 mg/kg/injection, schedule: Q04DX003 (ip), vehicle: saline 100 % of control | dose: 75.0 mg/kg/injection, schedule: Q01DX009 (ip), vehicle: saline 108 % of control | dose: 75.0 mg/kg/injection, schedule: Q04DX003 (ip), vehicle: saline 100 % of control | dose: 150.0 mg/kg/injection, schedule: Q04DX003 (ip), vehicle: saline 105 % of control

C[CH2][Pb]([CH2]C)([CH2]C)[O]S(=O)(=O)c1ccc(C)cc1
inactive: dose: 1.56 mg/kg/injection, schedule: Q01DX009 (ip), vehicle: saline with Tween-80 95 % of control | dose: 3.13 mg/kg/injection, schedule: Q01DX009 (ip), vehicle: saline with Tween-80 96 % of control

O=C(Oc1ccccc1)c1cc(Br)c2ccccc2c1O
inactive: [15] 96 % of control | dose: 100.0 mg/kg/injection, schedule: Q04DX003 (ip), vehicle: Klucel (hydroxypropylcellulose) (HPC) 89 % of control | [16] 95 % of control | dose: 200.0 mg/kg/injection, schedule: Q04DX003 (ip), vehicle: Klucel (hydroxypropylcellulose) (HPC) 97 % of control | [17] 93 % of control | dose: 400.0 mg/kg/injection, schedule: Q04DX003 (ip), vehicle: Klucel (hydroxypropylcellulose) (HPC) 87 % of control

O=C(Nc1cccc2ccccc12)OCCCBr
inactive: [15] 90 % of control | [16] 90 % of control

O=C(c1ccc([N+](=O)[O-])cc1)c1ccn[nH]1
inactive: [10] 103 % of control | [11] 99 % of control | [12] 94 % of control

CC(C1SCCCS1)C1SCCCS1
inactive: dose: 37.5 mg/kg/injection, schedule: Q04DX002 (ip), vehicle: saline with Tween-80 92 % of control | dose: 75.0 mg/kg/injection, schedule: Q04DX002 (ip), vehicle: saline with Tween-80 92 % of control | dose: 150.0 mg/kg/injection, schedule: Q04DX002 (ip), vehicle: saline with Tween-80 98 % of control | dose: 300.0 mg/kg/injection, schedule: Q04DX002 (ip), vehicle: saline with Tween-80 95 % of control

COc1ccc(C=Nc2ccc3c(c2)OCO3)cc1Br
inactive: [15] 88 % of control | dose: 100.0 mg/kg/injection, schedule: Q04DX002 (ip), vehicle: saline with Tween-80 108 % of control | [16] 101 % of control | dose: 200.0 mg/kg/injection, schedule: Q04DX002 (ip), vehicle: saline with Tween-80 102 % of control | [17] 103 % of control | dose: 400.0 mg/kg/injection, schedule: Q04DX002 (ip), vehicle: saline with Tween-80 97 % of control

O=[N+]([O-])c1ccc(O)c(C=NCCCN=Cc2cc([N+](=O)[O-])ccc2O)c1
inactive: [4] 90 % of control | [5] 102 % of control | [6] 96 % of control

CCOC(=O)CN1C(=O)CN=C(c2ccccn2)c2cc(Cl)ccc21
inactive: [15] 91 % of control | [16] 93 % of control

Cc1ccc(C)c(NC(=O)Nc2cccc(O)c2)c1
inactive: dose: 100.0 mg/kg/injection, schedule: Q01DX009 (ip), vehicle: Klucel (hydroxypropylcellulose) (HPC) 102 % of control | [13] 109 % of control | dose: 200.0 mg/kg/injection, schedule: Q01DX009 (ip), vehicle: Klucel (hydroxypropylcellulose) (HPC) 103 % of control | [14] 102 % of control | dose: 400.0 mg/kg/injection, schedule: Q01DX009 (ip), vehicle: Klucel (hydroxypropylcellulose) (HPC) 94 % of control | dose: 400.0 mg/kg/injection, schedule: Q04DX002 (ip), vehicle: Klucel (hydroxypropylcellulose) (HPC) 109 % of control

C[C@]12C[C@H](O)[C@H]3[C@@H](CCC4=CC(=O)CC[C@@]43C)[C@@H]1CC[C@@H]2C(=O)CF
inactive: dose: 50.0 mg/kg/injection, schedule: Q01DX Z (sc), vehicle: steriod suspending solution 95 % of control | dose: 250.0 mg/kg/injection, schedule: Q01DX Z (sc), vehicle: steriod suspending solution 102 % of control | dose: 500.0 mg/kg/injection, schedule: Q01DX Z (sc), vehicle: steriod suspending solution 98 % of control
